Measured values: US7626042B2, “O-substituted hydroxyaryl derivatives” (Institute of Medicinal Molecular Design, Inc., priority 2002, dated 2009)
Where a name gives a salt, the structure may show the parent alone.

Tested on: NF-κB activation
Assay: Inhibitory activity against NF-κB activation, luciferase reporter assay under TNF-α stimulation
Type: cell-based, human
Settings: HepG2 cells, TNF-α 40 ng/ml, 4 hours; for inhibition at 1 µg/mL / inhibition at 10 µg/mL: Homo sapiens, read-out: Inhibitory Ratio of NF-κ B Activation(%)
Protocol: Inhibitory activity against NF-κB activation was measured by referring to the method of Hill et al. (Cell, (USA), in 1993, Vol. 73, No. 2, p. 395-406). Using a transfection reagent(Effectene; QIAGEN), the human hepatoma cell strain HepG2 was transfected with a plasmid (pNFκ Luc Reporter Plasmid; STRATAGENE) integrated with an oligonucleotide having five tandem copies of NF-κB binding sequences(TGGGGACTTTCCGC) on a upstream region of firefly luciferase gene (Luc) according to the QIAGEN's protocol, and the cells were incubated for 6 to 24 hours. Then the cells were cultured for 4 hours after the addition of TNF-α (40 ng/ml) in the presence of a test compound, and intracellular luciferase activity was measured by using PicaGene LT (TOYO INK MFG Co., Ltd.) and a chemical luminescence measurement apparatus(SPECTRAFluor Plus; TECAN). The inhibitory ratio was measured as a ratio relative to a value of the luciferase activity in the absence of the test compound.

Row | Structure (SMILES) | Inhibitory Ratio of NF-κ B Activation(%) (Drug Concentration 1 μg/mL) | Inhibitory Ratio of NF-κ B Activation(%) (Drug Concentration 10 μg/mL) | inhibition at 1 µg/mL (Drug Concentration 1 μg/mL) [%] | inhibition at 10 µg/mL (Drug Concentration 10 μg/mL) [%]
1 | CC(=O)NCC(=O)Oc1ccc(Cl)cc1C(=O)Nc1cc(C(F)(F)F)cc(C(F)(F)F)c1 [Compound 20] | 94.8 | 98.1 | – | –
2 | O=C(CNC(=O)OCc1ccccc1)Oc1ccc(Cl)cc1C(=O)Nc1cc(C(F)(F)F)cc(C(F)(F)F)c1 [Compound 21] | 96.7 | 98.7 | – | –
3 | CC(C)(C)OC(=O)NCC(=O)Oc1ccc(Cl)cc1C(=O)Nc1cc(C(F)(F)F)cc(C(F)(F)F)c1 [Compound 22, 2-[N-(tert-butoxycarbonyl)glycyl]oxy-5-chloro-N-[3,5-bis(trifluoromethyl)phenyl]-benzamide] | – | – | 35.3 | 98.7
4 | Cl.NCC(=O)Oc1ccc(Cl)cc1C(=O)Nc1cc(C(F)(F)F)cc(C(F)(F)F)c1 [Compound 23] | 19.8 | 97.3 | – | –
5 | CC(C)[C@H](NC(=O)OC(C)(C)C)C(=O)Oc1ccc(Cl)cc1C(=O)Nc1cc(C(F)(F)F)cc(C(F)(F)F)c1 [Compound 24, 2-[N-(tert-butoxycarbonyl)-L-valyl]oxy-5-chloro-N-[3,5-bis(trifluoromethyl)phenyl]-benzamide] | – | – | 96.3 | 96.8
6 | CC(C)[C@H](N)C(=O)Oc1ccc(Cl)cc1C(=O)Nc1cc(C(F)(F)F)cc(C(F)(F)F)c1.Cl [Compound 25] | 93.4 | 97.2 | – | –
7 | CC(C)C[C@H](NC(=O)OC(C)(C)C)C(=O)Oc1ccc(Cl)cc1C(=O)Nc1cc(C(F)(F)F)cc(C(F)(F)F)c1 [Compound 26, 2-[N-(tert-butoxycarbonyl)-L-leucyl]oxy-5-chloro-N-[3,5-bis(trifluoromethyl)phenyl]-benzamide] | – | – | 97.8 | 98.9
8 | CC(C)C[C@H](N)C(=O)Oc1ccc(Cl)cc1C(=O)Nc1cc(C(F)(F)F)cc(C(F)(F)F)c1.Cl [Compound 27] | 95.8 | 99.2 | – | –
9 | CC(C)(C)OC(=O)N[C@@H](Cc1ccccc1)C(=O)Oc1ccc(Cl)cc1C(=O)Nc1cc(C(F)(F)F)cc(C(F)(F)F)c1 [Compound 28, 2-[N-(tert-butoxycarbonyl)-L-phenylalanyl]oxy-5-chloro-N-[3,5-bis(trifluoromethyl)-phenyl]benzamide] | – | – | 96.4 | 98.4
10 | Cl.N[C@@H](Cc1ccccc1)C(=O)Oc1ccc(Cl)cc1C(=O)Nc1cc(C(F)(F)F)cc(C(F)(F)F)c1 [Compound 29] | 90.2 | 97.5 | – | –
11 | CC(C)(C)OC(=O)C[C@H](NC(=O)OC(C)(C)C)C(=O)Oc1ccc(Cl)cc1C(=O)Nc1cc(C(F)(F)F)cc(C(F)(F)F)c1 [Compound 30] | 96.4 | 97.0 | – | –
12 | CC(C)(C)OC(=O)CC[C@H](NC(=O)OC(C)(C)C)C(=O)Oc1ccc(Cl)cc1C(=O)Nc1cc(C(F)(F)F)cc(C(F)(F)F)c1 [Compound 31, 2-[N-(tert-butoxycarbonyl)-γ-O-(tert-butyl)-α-L-glutamyl]oxy-5-chloro-N-[3,5-bis(trifluoromethyl)phenyl]benzamide] | 97.2 | 97.2 | – | –
13 | N[C@@H](CCC(=O)O)C(=O)Oc1ccc(Cl)cc1C(=O)Nc1cc(C(F)(F)F)cc(C(F)(F)F)c1 [Compound 32] | 98.0 | 98.8 | – | –
14 | CC(C)(C)OC(=O)NCCCC[C@H](NC(=O)OC(C)(C)C)C(=O)Oc1ccc(Cl)cc1C(=O)Nc1cc(C(F)(F)F)cc(C(F)(F)F)c1 [Compound 33, 5-chloro-2-[N^α,N^ε-di(tert-butoxycarbonyl)-L-lysyl]oxy-N-[3,5-bis(trifluoromethyl)phenyl]benzamide] | – | – | 96.6 | 98.6
15 | Cl.Cl.NCCCC[C@H](N)C(=O)Oc1ccc(Cl)cc1C(=O)Nc1cc(C(F)(F)F)cc(C(F)(F)F)c1 [Compound 34] | 51.9 | 99.5 | – | –
16 | CC(C)C[C@H](NC(=O)[C@H](Cc1ccccc1)NC(=O)OC(C)(C)C)C(=O)Oc1ccc(Cl)cc1C(=O)Nc1cc(C(F)(F)F)cc(C(F)(F)F)c1 [Compound 35, 2-{N-[N-(tert-butoxycarbonyl)-L-phenylalanyl]-L-leucyl}oxy-5-chloro-N-[3,5-bis(trifluoromethyl)phenyl]benzamide] | – | – | 96.9 | 98.3
17 | CC(C)C[C@H](NC(=O)[C@@H](N)Cc1ccccc1)C(=O)Oc1ccc(Cl)cc1C(=O)Nc1cc(C(F)(F)F)cc(C(F)(F)F)c1.Cl [Compound 36] | 97.8 | 98.7 | – | –

Row | Structure (SMILES) | Inhibitory Ratio of NF-κ B Activation(%) (Drug Concentration 1 μg/mL) | Inhibitory Ratio of NF-κ B Activation(%) (Drug Concentration 10 μg/mL) | inhibition at 1 µg/mL (Drug Concentration 1 μg/mL) [%] | inhibition at 10 µg/mL (Drug Concentration 10 μg/mL) [%]
18 | CC(C)C[C@H](NC(=O)[C@H](CC(=O)OC(C)(C)C)NC(=O)OC(C)(C)C)C(=O)Oc1ccc(Cl)cc1C(=O)Nc1cc(C(F)(F)F)cc(C(F)(F)F)c1 [Compound 37, 2-{N-[N-(tert-butoxycarbonyl)-β-O-(tert-butyl)-α-L-aspartyl]-L-leucyl}oxy-5-chloro-N-[3,5-bis(trifluoromethyl)phenyl]benzamide] | 96.6 | 98.1 | – | –
19 | CC(C)C[C@H](NC(=O)[C@@H](N)CC(=O)O)C(=O)Oc1ccc(Cl)cc1C(=O)Nc1cc(C(F)(F)F)cc(C(F)(F)F)c1.Cl [Compound 38] | 97.8 | 98.6 | – | –
20 | CC(C)C[C@H](NC(=O)[C@H](CCCCNC(=O)OC(C)(C)C)NC(=O)OC(C)(C)C)C(=O)Oc1ccc(Cl)cc1C(=O)Nc1cc(C(F)(F)F)cc(C(F)(F)F)c1 [Compound 39, 2-{N-[N^α,N^ε-di(tert-butoxycarbonyl)-L-lysyl]-L-leucyl}oxy-5-chloro-N-[3,5-bis(trifluoromethyl)phenyl]benzamide] | – | – | 96.7 | 98.4
21 | CC(C)C[C@H](NC(=O)[C@@H](N)CCCCN)C(=O)Oc1ccc(Cl)cc1C(=O)Nc1cc(C(F)(F)F)cc(C(F)(F)F)c1.Cl.Cl [Compound 40] | 96.2 | 97.5 | – | –
22 | CC(C)C[C@H](N)C(=O)N[C@@H](Cc1ccccc1)C(=O)Oc1ccc(Cl)cc1C(=O)Nc1cc(C(F)(F)F)cc(C(F)(F)F)c1 [Compound 41, 5-Chloro-2-[N-(L-leucyl)-L-phenylalanyl]oxy-N-[3,5-bis(trifluoromethyl)phenyl]-benzamide hydrochloride] | – | – | 91.4 | 99.1
23 | N[C@@H](CC(=O)O)C(=O)N[C@@H](Cc1ccccc1)C(=O)Oc1ccc(Cl)cc1C(=O)Nc1cc(C(F)(F)F)cc(C(F)(F)F)c1 [Compound 42, 2-[N-(α-L-aspartyl)-L-phenylalanyl]oxy-5-chloro-N-[3,5-bis(trifluoromethyl)-phenyl]benzamide hydrochloride] | – | – | 92.7 | 96.9
24 | COC(=O)Oc1ccc(Cl)cc1C(=O)Nc1cc(C(F)(F)F)cc(C(F)(F)F)c1 [Compound 43, 5-Chloro-2-(methoxycarbonyl)oxy-N-[3,5-bis(trifluoromethyl)phenyl]benzamide] | – | – | 94.9 | 97.6
25 | CS(=O)(=O)Oc1ccc(Cl)cc1C(=O)Nc1cc(C(F)(F)F)cc(C(F)(F)F)c1 [Compound 44] | 85.9 | 98.6 | – | –
26 | CCCS(=O)(=O)Oc1ccc(Cl)cc1C(=O)Nc1cc(C(F)(F)F)cc(C(F)(F)F)c1 [Compound 45] | 84.7 | 95.4 | – | –
27 | CC(C)S(=O)(=O)Oc1ccc(Cl)cc1C(=O)Nc1cc(C(F)(F)F)cc(C(F)(F)F)c1 [Compound 46] | 89.5 | 96.3 | – | –
28 | Cc1ccc(S(=O)(=O)Oc2ccc(Cl)cc2C(=O)Nc2cc(C(F)(F)F)cc(C(F)(F)F)c2)cc1 [Compound 47] | 84.7 | 92.5 | – | –
29 | CN(C)S(=O)(=O)Oc1ccc(Cl)cc1C(=O)Nc1cc(C(F)(F)F)cc(C(F)(F)F)c1 [Compound 48] | 37.9 | 90.4 | – | –
30 | O=C(Nc1cc(C(F)(F)F)cc(C(F)(F)F)c1)c1cc(Cl)ccc1OS(=O)(=O)O [Compound 49] | 80.1 | 99.0 | – | –
31 | O=C(Nc1cc(C(F)(F)F)cc(C(F)(F)F)c1)c1cc(Cl)ccc1OP(=O)(OCc1ccccc1)OCc1ccccc1 [Compound 50, 5-chloro-2-(dibenzylphosphono)oxy-N-[3,5-bis(trifluoromethyl)phenyl]benzamide] | – | – | 90.7 | 97.1
32 | O=C(Nc1cc(C(F)(F)F)cc(C(F)(F)F)c1)c1cc(Cl)ccc1OP(=O)(O)O [Compound 51, 5-chloro-2-phosphonooxy-N-[3,5-bis(trifluoromethyl)phenyl]benzamide] | – | – | 89.7 | 96.6
33 | O=C(Nc1cc(C(F)(F)F)cc(C(F)(F)F)c1)c1cc(Cl)ccc1OP(=O)([O-])O.[Na+] [Compound 52] | 76.3 | 96.5 | – | –
